Test results published in PubChem BioAssay (NCI).
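Following 48 hours of exposure in 96-well plates, responses at five concentrations were used to interpolate endpoints linearly. TGI: total growth inhibition.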

How the values were obtained:
Assay in all cases: NCI tumour cell line growth inhibition, 48 h
HOP-62 NSCLC = system: HOP-62 NSCLC
A498 renal = system: A498 renal
OVCAR-5 ovarian = system: OVCAR-5 ovarian
HL-60(TB) leukemia = system: HL-60(TB) leukemia
HCC-2998 colon = system: HCC-2998 colon
HCT-116 colon = system: HCT-116 colon
UO-31 renal = system: UO-31 renal
SK-OV-3 ovarian = system: SK-OV-3 ovarian
NCI-H23 lung = system: NCI-H23 lung
RPMI-8226 leukemia = system: RPMI-8226 leukemia

Measured: TGI

COC(=O)C(=O)C(C(=O)C(=O)Nc1ccccc1C(C)=O)c1nc2ccc(C(=O)c3ccccc3)cc2[nH]c1=O (stereo not given)
> 100 µM: all assays above
